Source: ChEMBL document CHEMBL4840313, “Bioisosteric replacements of the indole moiety for the development of a potent and selective PI3Kδ inhibitor: Design, synthesis and biological evaluation” (Eur J Med Chem, 2021)
pIC50: −log10 of the molar value.

Assays:
[1] = AUC (0 to infinity) in Sprague-Dawley rat at 10 mg/kg, po; type: ADME, organism-based; set-up: route oral, time infinity, dose 10 mg/kg; details: in vivo
[2] = Induction of cell cycle arrest in human MOLM16 cells assessed as accumulation at subG1 phase at 1 uM incubated for 24 hrs by propidium iodide /RNase staining based flow cytometry(Rvb =4.02 %); type: functional, MOLM-16
[3] = Induction of cell cycle arrest in human MOLM16 cells assessed as accumulation at G1 phase at 2 uM incubated for 24 hrs by propidium iodide /RNase staining based flow cytometry(Rvb =46.8 %); type: functional, MOLM-16
[4] = Induction of apoptosis in human MOLM16 cells assessed as late apoptotic cells at 1 uM incubated for 48 hrs by Annexin V and propidium iodide Staining based assay (reference value: 6.77 %); type: functional, MOLM-16
[5] = Tmax in Sprague-Dawley rat at 10 mg/kg, po; type: ADME, organism-based; details: in vivo
[6] = Acute toxicity in ICR mouse assessed as damage in spleen at 90 mg/kg, po measured after 7 days by H&E staining based immunohistochemistry; type: organism-based; details: in vivo, 168 h, time 7 day
[7] = Induction of cell cycle arrest in human MOLM16 cells assessed as accumulation at G2 phase at 5 uM incubated for 24 hrs by propidium iodide /RNase staining based flow cytometry(Rvb =14.7 %); type: functional, MOLM-16
[8] = MRT (0 to infinity) in Sprague-Dawley rat at 2 mg/kg, iv; type: ADME, organism-based; details: in vivo
[9] = Induction of apoptosis in human MOLM16 cells assessed as viable cells at 1 uM incubated for 48 hrs by Annexin V and propidium iodide Staining based assay (reference value: 76.3 %); type: functional, MOLM-16; details: read-out: Activity
[10] = system: HL-60; experiment: Antiproliferative activity against human HL-60 cells assessed as reduction in cell viability measured after 48 hrs by CCK8 assay; type: functional, cell-based; details: HL-60, 48 h
[11] = Induction of apoptosis in human MOLM16 cells assessed as late apoptotic cells at 5 uM incubated for 48 hrs by Annexin V and propidium iodide Staining based assay (reference value: 6.77 %); type: functional, MOLM-16
[12] = Oral bioavailability in Sprague-Dawley rat at 10 mg/kg; type: ADME, organism-based; details: in vivo
[13] = Induction of cell cycle arrest in human MOLM16 cells assessed as accumulation at G1 phase at 5 uM incubated for 24 hrs by propidium iodide /RNase staining based flow cytometry(Rvb =46.8 %); type: functional, MOLM-16
[14] = Cmax in Sprague-Dawley rat at 10 mg/kg, po; type: ADME, organism-based; set-up: route oral, dose 10 mg/kg; details: in vivo
[15] = Acute toxicity in ICR mouse assessed as damage in liver at 90 mg/kg, po measured after 7 days by H&E staining based immunohistochemistry; type: organism-based; details: in vivo, 168 h, time 7 day
[16] = system: EOL1; experiment: Antiproliferative activity against human EOL1 cells assessed as reduction in cell viability measured after 48 hrs by CCK8 assay; type: functional, cell-based; details: EOL1, 48 h
[17] = Volume of distribution in steady state in Sprague-Dawley rat at 2 mg/kg, iv; type: ADME, organism-based; details: in vivo
[18] = Induction of cell cycle arrest in human MOLM16 cells assessed as accumulation at G2 phase at 1 uM incubated for 24 hrs by propidium iodide /RNase staining based flow cytometry(Rvb =14.7 %); type: functional, MOLM-16
[19] = Induction of apoptosis in human MOLM16 cells assessed as late apoptotic cells at 2 uM incubated for 48 hrs by Annexin V and propidium iodide Staining based assay (reference value: 6.77 %); type: functional, MOLM-16
[20] = Induction of apoptosis in human MOLM16 cells assessed as early apoptotic cells at 2 uM incubated for 48 hrs by Annexin V and propidium iodide Staining based assay (reference value: 16.4 %); type: functional, MOLM-16
[21] = Induction of apoptosis in human MOLM16 cells assessed as necrotic cells at 1 uM incubated for 48 hrs by Annexin V and propidium iodide Staining based assay (reference value: 0.44 %); type: functional, MOLM-16
[22] = Induction of apoptosis in human MOLM16 cells assessed as early apoptotic cells at 1 uM incubated for 48 hrs by Annexin V and propidium iodide Staining based assay (reference value: 16.4 %); type: functional, MOLM-16
[23] = Antitumor activity against human MOLM16 cells xenografted in BALB/c mouse assessed as tumor growth inhibition at 20 mg/kg, po administered daily for 14 days; type: functional, MOLM-16; details: 336 h, time 14 day, read-out: TGI
[24] = Half life in Sprague-Dawley rat at 2 mg/kg, iv; type: ADME, organism-based; details: in vivo
[25] = Induction of apoptosis in human MOLM16 cells assessed as early apoptotic cells at 5 uM incubated for 48 hrs by Annexin V and propidium iodide Staining based assay (reference value: 16.4 %); type: functional, MOLM-16
[26] = Half life in Sprague-Dawley rat at 10 mg/kg, po; type: ADME, organism-based; details: in vivo
[27] = Induction of apoptosis in human MOLM16 cells assessed as viable cells at 2 uM incubated for 48 hrs by Annexin V and propidium iodide Staining based assay (reference value: 76.3 %); type: functional, MOLM-16; details: read-out: Activity
[28] = Toxicity in BALB/c nude mouse xenografted with human MOLM16 cells assessed as change in body weight at 20 to 40 mg/kg, po administered once daily for 14 days; type: organism-based; details: in vivo, 336 h, dose 20-40 mg/kg, time 14 day
[29] = Induction of cell cycle arrest in human MOLM16 cells assessed as accumulation at S phase at 1 uM incubated for 24 hrs by propidium iodide /RNase staining based flow cytometry(Rvb =31.8 %); type: functional, MOLM-16
[30] = AUC (0 to t) in Sprague-Dawley rat at 2 mg/kg, iv; type: ADME, organism-based; set-up: dose 2 mg/kg; details: in vivo
[31] = Antiproliferative activity against human MOLM16 cells assessed as reduction in cell viability measured after 48 hrs by CCK8 assay; type: functional, cell-based, MOLM-16; details: MOLM16, 48 h
[32] = Induction of apoptosis in human MOLM16 cells assessed as necrotic cells at 2 uM incubated for 48 hrs by Annexin V and propidium iodide Staining based assay (reference value: 0.44 %); type: functional, MOLM-16
[33] = AUC (0 to infinity) in Sprague-Dawley rat at 2 mg/kg, iv; type: ADME, organism-based; set-up: time infinity, route intravenous, dose 2 mg/kg; details: in vivo
[34] = Acute toxicity in ICR mouse assessed as behavioral changes at 90 mg/kg, po administered for 7 days and observed for 7 days; type: organism-based; details: in vivo, 168 h, time 7 day
[35] = Induction of cell cycle arrest in human MOLM16 cells assessed as accumulation at S phase at 2 uM incubated for 24 hrs by propidium iodide /RNase staining based flow cytometry(Rvb =31.8 %); type: functional, MOLM-16
[36] = Induction of cell cycle arrest in human MOLM16 cells assessed as accumulation at subG1 phase at 2 uM incubated for 24 hrs by propidium iodide /RNase staining based flow cytometry(Rvb =4.02 %); type: functional, MOLM-16
[37] = Acute toxicity in ICR mouse assessed as damage in heart at 90 mg/kg, po measured after 7 days by H&E staining based immunohistochemistry; type: organism-based; details: in vivo, 168 h, time 7 day
[38] = Induction of cell cycle arrest in human MOLM16 cells assessed as accumulation at subG1 phase at 5 uM incubated for 24 hrs by propidium iodide /RNase staining based flow cytometry(Rvb =4.02 %); type: functional, MOLM-16
[39] = Acute toxicity in ICR mouse assessed as damage in lung at 90 mg/kg, po measured after 7 days by H&E staining based immunohistochemistry; type: organism-based; details: in vivo, 168 h, time 7 day
[40] = Acute toxicity in ICR mouse assessed as survival at 90 mg/kg, po administered for 7 days and observed for 7 days; type: organism-based; details: in vivo, 168 h, time 7 day
[41] = Induction of cell cycle arrest in human MOLM16 cells assessed as accumulation at G2 phase at 2 uM incubated for 24 hrs by propidium iodide /RNase staining based flow cytometry(Rvb =14.7 %); type: functional, MOLM-16
[42] = Induction of cell cycle arrest in human MOLM16 cells assessed as accumulation at S phase at 5 uM incubated for 24 hrs by propidium iodide /RNase staining based flow cytometry(Rvb =31.8 %); type: functional, MOLM-16
[43] = Induction of apoptosis in human MOLM16 cells assessed as necrotic cells at 5 uM incubated for 48 hrs by Annexin V and propidium iodide Staining based assay (reference value: 0.44 %); type: functional, MOLM-16
[44] = AUC (0 to t) in Sprague-Dawley rat at 10 mg/kg, po; type: ADME, organism-based; set-up: dose 10 mg/kg; details: in vivo
[45] = Antiproliferative activity against p110 unexpressed human MM1.R cells assessed as reduction in cell viability measured after 48 hrs by CCK8 assay; type: functional; details: MM.1R
[46] = Induction of apoptosis in human MOLM16 cells assessed as viable cells at 5 uM incubated for 48 hrs by Annexin V and propidium iodide Staining based assay (reference value: 76.3 %); type: functional, MOLM-16; details: read-out: Activity
[47] = Antitumor activity against human MOLM16 cells xenografted in BALB/c mouse assessed as tumor growth inhibition at 40 mg/kg, po administered daily for 14 days; type: functional, MOLM-16; details: 336 h, time 14 day, read-out: TGI
[48] = Acute toxicity in ICR mouse assessed as damage in kidney at 90 mg/kg, po measured after 7 days by H&E staining based immunohistochemistry; type: organism-based; details: in vivo, 168 h, time 7 day
[49] = system: KG-1; experiment: Antiproliferative activity against human KG-1 cells assessed as reduction in cell viability measured after 48 hrs by CCK8 assay; type: functional, cell-based; details: KG-1, 48 h
[50] = Induction of cell cycle arrest in human MOLM16 cells assessed as accumulation at G1 phase at 1 uM incubated for 24 hrs by propidium iodide /RNase staining based flow cytometry(Rvb =46.8 %); type: functional, MOLM-16

O=S(=O)(Nc1cc(-c2cnc3[nH]ncc3c2)cnc1Cl)c1ccccc1
AUC(0-inf) [1]: 9220 ng·h/mL | Activity [2]: 3.5% | Activity [3]: 56.7% | Activity [4]: 13.6% | Tmax [5]: 4 h | Activity [6]: Non-Toxic | Activity [7]: 8.07% | MRT [8]: 3.12 h | viability at 1 µM [9]: 69.8% | pIC50 [10]: 5.65 | Activity [11]: 42.6% | bioavailability [12]: 17.6% | Activity [13]: 49.2% | Cmax [14]: 1100 ng/mL | Activity [15]: Non-Toxic | pIC50 [16]: 5.55 | Vdss [17]: 2.12 L/kg | Activity [18]: 11.8% | Activity [19]: 16.1% | Activity [20]: 24.6% | Activity [21]: 1.6% | Activity [22]: 16% | inhibition in vivo at 20 mg/kg [23]: 31% | half-life [24]: 7.68 h | Activity [25]: 46.1% | half-life [26]: 3.74 h | viability at 2 µM [27]: 57.8% | Activity [28]: Non-Toxic | Activity [29]: 31.1% | AUC(0-t) [30]: 10200 ng·h/mL | pIC50 [31]: 6.06 | Activity [32]: 1.47% | AUC(0-inf) [33]: 10500 ng·h/mL | Activity [34]: Non-Toxic | Activity [35]: 28.6% | Activity [36]: 3.27% | Activity [37]: Non-Toxic | Activity [38]: 11.1% | Activity [39]: Non-Toxic | Activity [40]: Non-Toxic | Activity [41]: 10.8% | Activity [42]: 30.1% | Activity [43]: 0.6% | AUC(0-t) [44]: 9040 ng·h/mL | pIC50 [45]: 4.64 | viability at 5 µM [46]: 10.7% | inhibition in vivo at 40 mg/kg [47]: 49% | Activity [48]: Non-Toxic | pIC50 [49]: 5.24 | Activity [50]: 54.9%
